Measured values: patent US20110288052A1, “NOVEL COMPOUNDS, PHARMACEUTICAL COMPOSITIONS CONTAINING SAME, AND METHODS OF USE FOR SAME” (priority 2008, published 2011)
Values after ≈ are worked out from the molar mass of the structure shown. Where two headings read alike, the source gives them in different places.

What was measured:
[1] = test system: Staphylococcus aureus (ATCC # 29213); experiment: Broth microdilution antimicrobial assay, S. aureus; type: cell-based
Method: Antimicrobial Properties A broth microdilution assay is used to assess the antimicrobial activity of the compounds. Compounds are tested at twofold serial dilutions, and the concentration that inhibits visible growth (OD600 at 10% of control) is defined as the MIC. Microorganisms tested include Staphylococcus aureus (ATCC # 29213), Enterococcus faecalis (ATCC # 29212), Pseudomonas aerpginosa (ATCC # 27853), and Escherichia coli (ATCC # 25922). The assay is performed in two growth media, Mueller Hinton Broth and Trypticase Soy Broth.
A blood (Tsoy/5% sheep blood) agar plate is inoculated from frozen stocks maintained in T soy broth containing 10% glycerol and incubated overnight at 37° C. Colonies are suspended in sterile broth so that the turbidity matches the turbidity of a 0.5 McFarland standard. The inoculum is diluted 1:10 in sterile broth (Mueller Hinton or Trypticase soy) and 195 μl is dispensed per well of a 96-well plate. The compounds to be tested, dissolved in DMSO, are added to the wells in 5 μl volume at the following concentrations: 25, 12.5, 6.25, 3.125, 1.56 and 0.78 μg/ml in duplicate. Additional concentrations are tested if required. 5 μl of DMSO added to duplicate wells are the vehicle control. Serial dilutions of positive control compounds, vancomycin (E. faecalis and S. aureus) and tobramycin (E. coli and P. aerpginosa), are included in each run.
After 24 hours of incubation at 37° C., plates are read at OD600 on a Molecular Devices SpectraMax Plus Spectrophotometer. Average OD600 values are computed using SOFTmax Pro Software (Molecular Devices) and MIC values are determined by linear regression analysis using Prism version 3.02 (Graph Pad Software, San Diego). The MIC is defined as the concentration of compound required to produce an OD600 reading equivalent to 10% of the vehicle control reading.

[2] = molecular target: T1, Human FAS purified from ZR-75-1 human breast cancer cells (Homo sapiens, UniProt P49327); experiment: FAS enzymatic activity (malonyl-CoA dependent NADPH oxidation); type: biochemical; details: (SB)
T1 construct: Human FAS was purified from cultured ZR-75-1 human breast cancer cells; endogenous in cells; host or cells: ZR-75-1 human breast cancer cells (ATCC); enzyme purified by hypotonic lysis, PEG precipitation and Mono Q anion exchange
Method: Purification of FAS from ZR-75-1 Human Breast Cancer Cells. Human FAS was purified from cultured ZR-75-1 human breast cancer cells obtained from the American Type Culture Collection. The procedure, adapted from Linn et al., 1981, and Kuhajda et al., 1994, utilizes hypotonic lysis, successive polyethyleneglycol (PEG) precipitations, and anion exchange chromatography. ZR-75-1 cells are cultured at 37° C. with 5% CO2 in RPMI culture medium with 10% fetal bovine serum, penicillin and streptomycin.
Ten T150 flasks of confluent cells are lysed with 1.5 ml lysis buffer (20 mM Tris-HCl, pH 7.5, 1 mM EDTA, 0.1 mM phenylmethanesulfonyl fluoride (PMSF), 0.1% Igepal CA-630) and bounce homogenized on ice for 20 strokes. […] FAS protein concentration is determined using the Coomassie Plus Protein Assay Reagent (Pierce) according to manufacturer's specifications using BSA as a standard. […]
Measurement of FAS Enzymatic Activity and Determination of the IC50 of the Compounds FAS activity is measured by monitoring the malonyl-CoA dependent oxidation of NADPH spectrophotometrically at OD340 in 96-well plates (Dils et al and Arslanian et al, 1975). […]
The assay is performed on a Molecular Devices SpectraMax Plus Spectrophotometer. […] The plate is read again as above with the kinetic protocol to measure the malonyl-CoA dependent NADPH oxidation. […]

[3] = ATCC29213, Mueller Hinton Broth, read-out: SA/MH (MIC)
[4] = ATCC29213, Trypticase Soy Broth, read-out: SA/Tsoy (MIC)

T1 sequence (P49327 2-2511 limits assumed): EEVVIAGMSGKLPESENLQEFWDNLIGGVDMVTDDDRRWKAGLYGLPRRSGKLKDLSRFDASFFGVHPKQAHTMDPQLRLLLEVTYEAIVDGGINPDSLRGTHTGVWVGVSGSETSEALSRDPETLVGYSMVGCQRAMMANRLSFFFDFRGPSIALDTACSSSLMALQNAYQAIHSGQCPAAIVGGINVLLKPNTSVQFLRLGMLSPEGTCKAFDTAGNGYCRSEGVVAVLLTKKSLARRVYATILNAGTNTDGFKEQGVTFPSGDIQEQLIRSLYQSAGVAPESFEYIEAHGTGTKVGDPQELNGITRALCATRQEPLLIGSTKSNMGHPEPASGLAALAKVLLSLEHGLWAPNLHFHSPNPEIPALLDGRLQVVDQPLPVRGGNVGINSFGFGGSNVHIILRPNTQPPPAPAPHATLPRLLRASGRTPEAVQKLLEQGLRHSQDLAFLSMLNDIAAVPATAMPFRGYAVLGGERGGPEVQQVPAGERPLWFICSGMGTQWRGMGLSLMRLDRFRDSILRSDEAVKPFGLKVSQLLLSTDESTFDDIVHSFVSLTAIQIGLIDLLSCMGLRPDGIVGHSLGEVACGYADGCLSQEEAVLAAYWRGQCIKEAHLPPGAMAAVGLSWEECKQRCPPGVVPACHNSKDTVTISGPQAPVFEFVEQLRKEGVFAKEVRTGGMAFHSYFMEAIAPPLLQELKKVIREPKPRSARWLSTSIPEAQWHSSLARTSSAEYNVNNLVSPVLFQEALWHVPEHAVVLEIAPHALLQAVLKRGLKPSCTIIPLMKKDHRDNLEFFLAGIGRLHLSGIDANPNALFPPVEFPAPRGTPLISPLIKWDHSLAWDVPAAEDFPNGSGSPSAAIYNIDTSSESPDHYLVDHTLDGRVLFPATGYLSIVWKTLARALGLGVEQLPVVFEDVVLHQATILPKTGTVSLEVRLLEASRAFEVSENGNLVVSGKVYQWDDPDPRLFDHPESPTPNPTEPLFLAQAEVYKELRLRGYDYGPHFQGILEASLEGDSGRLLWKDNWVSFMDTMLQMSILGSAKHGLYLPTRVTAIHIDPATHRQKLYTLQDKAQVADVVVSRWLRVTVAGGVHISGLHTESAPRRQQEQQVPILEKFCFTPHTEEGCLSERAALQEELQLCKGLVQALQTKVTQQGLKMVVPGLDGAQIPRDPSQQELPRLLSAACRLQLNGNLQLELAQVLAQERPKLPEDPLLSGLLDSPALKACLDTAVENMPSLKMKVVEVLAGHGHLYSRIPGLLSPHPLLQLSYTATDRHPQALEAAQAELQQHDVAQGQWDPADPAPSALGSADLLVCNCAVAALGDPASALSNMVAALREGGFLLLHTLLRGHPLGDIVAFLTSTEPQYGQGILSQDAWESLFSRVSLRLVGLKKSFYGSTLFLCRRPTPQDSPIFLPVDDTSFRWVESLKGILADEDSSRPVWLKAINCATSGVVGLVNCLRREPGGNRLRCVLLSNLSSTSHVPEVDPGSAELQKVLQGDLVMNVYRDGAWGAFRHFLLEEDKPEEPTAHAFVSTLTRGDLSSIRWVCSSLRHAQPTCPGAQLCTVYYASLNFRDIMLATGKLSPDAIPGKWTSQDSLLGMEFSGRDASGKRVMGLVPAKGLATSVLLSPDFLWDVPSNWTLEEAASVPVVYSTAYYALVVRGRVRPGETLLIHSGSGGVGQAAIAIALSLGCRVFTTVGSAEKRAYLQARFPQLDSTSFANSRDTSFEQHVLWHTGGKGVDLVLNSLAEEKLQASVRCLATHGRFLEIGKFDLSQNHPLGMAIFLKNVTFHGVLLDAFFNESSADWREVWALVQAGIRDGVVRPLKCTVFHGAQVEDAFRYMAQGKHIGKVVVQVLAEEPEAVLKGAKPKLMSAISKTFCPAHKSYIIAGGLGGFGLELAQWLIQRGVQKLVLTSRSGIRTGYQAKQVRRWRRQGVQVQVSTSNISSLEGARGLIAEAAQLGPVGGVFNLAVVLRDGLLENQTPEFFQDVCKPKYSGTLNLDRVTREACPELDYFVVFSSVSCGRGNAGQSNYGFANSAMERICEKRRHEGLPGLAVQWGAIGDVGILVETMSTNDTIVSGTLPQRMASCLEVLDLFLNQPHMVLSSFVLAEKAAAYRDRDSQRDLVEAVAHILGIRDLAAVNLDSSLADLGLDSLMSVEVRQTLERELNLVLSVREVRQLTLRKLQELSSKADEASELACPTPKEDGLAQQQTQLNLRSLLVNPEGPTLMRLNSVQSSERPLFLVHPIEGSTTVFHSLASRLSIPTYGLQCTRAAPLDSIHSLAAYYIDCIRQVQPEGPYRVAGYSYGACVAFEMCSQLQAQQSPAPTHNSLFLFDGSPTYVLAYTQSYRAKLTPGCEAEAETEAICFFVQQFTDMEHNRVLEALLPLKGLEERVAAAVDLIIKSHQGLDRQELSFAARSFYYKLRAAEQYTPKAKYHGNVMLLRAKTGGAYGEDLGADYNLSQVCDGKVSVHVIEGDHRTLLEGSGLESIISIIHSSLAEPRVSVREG

`CCCCCCCCC1(C)OC(=O)C=C1OCC(=O)Nc1ccc(Cl)cc1` (stereo not drawn) was tested, and the MIC [1, 3] was 6 µg/mL (≈ 15.2 µM) and the MIC [1, 4] was 3 µg/mL (≈ 7.62 µM).

`CCCCCCCCC1(C)SC(=O)C=C1OCC(=O)Nc1ccc(Cl)cc1Cl` (stereo not drawn) was tested, and the “FAS (IC50)” value [2] was “Neg (SB)”.

`CCCCCCCCC1(C)SC(=O)C=C1OCC(=O)Nc1ccc(Cl)cc1` (stereo not drawn) was tested, and the IC50 [2] was 266 µM, the MIC [1, 3] was 6 µg/mL (≈ 14.6 µM) and the MIC [1, 4] was 3 µg/mL (≈ 7.32 µM).
